Data set [1] has as its system AI-2 production by HEK-293AI2 cells expressing MTAN and LuxS. Put plainly: HEK-293AI2 / V. harveyi (MM32) AI-2 detection platform (AI-2 production by engineered human cells). Format: cell-based, human cells; MTAN and LuxS derived from E. coli. As to conditions: for IC50: HEK-293AI2 cells exposed 24 h, AI-2 in supernatant read by V. harveyi MM32 bioluminescence. As for the experimental part: LuxS (MF688636) and MTAN (MF688635) transgenes derived from E. coli were codon-optimized for stable expression in mammalian cells. For the generation of double stable HEK-293-derived cell line HEK-293AI2 transgenic for simultaneous constitutive PhEFIα-driven MTAN and PhCMV-driven LuxS-eYFP expression, 250,000 cells were first transfected with 2000 ng of pFS168 (PhEFIα-MTAN-pA) and selected in culture medium containing 20 μg/ml blasticidin (cat. no. ant-bl-1; InvivoGen, San Diego, CA, USA) for two weeks. […] After 17 days of selection in medium containing 200 μg/ml (w/v) zeocin (cat. no. ant-zn-1; Invivogen, San Diego, CA, USA) and 20 μg/ml blasticidin, resistant monoclonal cells (HEK-293sFS26cx) were obtained by limiting dilution cloning and screened for AI-2 activity in their supernatants. […] The cell line was regularly tested for the absence of mycoplasma.
20 μl of HEK-293AI2 cells (10^4 cells per well) were resuspended in 20 μl Dulbecco's modified Eagle's medium (DMEM; Thermo Fisher, Basel, Switzerland, low glucose, without phenol red, cat. no. 11880–028) supplemented with 4 mM L-glutamine (Thermo Fisher, Basel, Switzerland, cat. no. 25030-024), 30 μg/ml kanamycin and 1% FCS and seeded into a poly-L-lysine-coated Black Greiner clear-bottom 384-well plate (cat. no. 3845; Corning, New York, USA) using a Multidrop Combi Reagent Dispenser (cat. no. 5840300; Thermo Fisher, Basel, Switzerland). Cells were incubated for 20 h and then 20 nL of individual compounds (stock solution in 5 mM in DMSO) or controls (stock solutions of novobiocin, 10 mM in DMSO; staurosporin, 20 mM in DMSO) were transferred with Echo 550 liquid handler (Labcyte, San Jose, CA, USA) into the plate.
Compound-treated cells were cultivated for 24 hours and the cell culture supernatants (10 μl) were transferred to dry black polystyrene 384-well plates (Corning, New York, USA, cat. no. 3571). The AI-2 activity was quantified by adding 40 μl per 384-well of V. harveyi MM32 AI-2 reporter strain, diluted 1:500 in AB-Medium from a stationary overnight culture grown in Luria Marine (LM)-medium containing 20 g of NaCl, 10 g of Bacto Tryptone (Difco Laboratories), and 5 g of yeast extract (BBL) ([25]). Plates were sealed with BREATHseal™ (cat. no. 7.676 050; Greiner Bio-One, Frickenhausen, Germany) and incubated for 4 h at 30°C and 200 rpm on a Multitron Pro shaker (Infors, Bottmingen, Switzerland). Bioluminescence was measured on an Envision 2104 Multilabel plate reader (Perkin Elmer, Waltham, USA) with 1 s integration time. […] The initial hit inclusion criteria were a toxicity score of less than 50% and an AI-2 activity reduction below the average of all compound activity three times the standard deviation (-49.39% of activity).
(§1) Figure 2. Cell-based primary screen for AI-2 biosynthesis inhibitors. (A) Detailed assay protocol of the primary screen using engineered mammalian cells to identify inhibitors of quorum sensing. […] Aliquots of 10 μl of culture supernatants were transferred to black-bottomed assay plates and mixed with 40 μl of V. harveyi MM32 (AI-2 biosensor). AI-2-induced bioluminescence was measured 4 h later and normalized against the controls. In a secondary screen, the dose-response relationships of hit compounds are analyzed. To simultaneously assess effects on cell viability, compound-treated cells were supplemented with PrestoBlue and incubated for 1 h prior to resorufin fluorescence quantification. (B) Z’-evaluation of the AI-2 inhibitor assay.

A further data set has as its system HEK-293AI2 cells. Format: cell-based, human. As for the experimental part: To monitor viable cells with active metabolism, we employed a fast resazurin assay. […] To calculate the relative cell viability, the fluorescence of DMSO-treated cells was set to 100%.
as §1, with “assay. […] Bioactivity and viability are calculated as percentages, based on the positive control value (taken as 100%) and negative control value (taken as 0%). […] Data points in (C) represent means of biological duplicates.” for “assay.”

The test system of a further data set is V. harveyi (BB170). Put plainly: V. harveyi BB170 growth (OD600 after 24 h). Format: cell-based, Vibrio harveyi. Set-up: TC50 (decrease of V. harveyi growth): unit not given beside the values. As to conditions: V. harveyi BB170, OD600 after 24 h. On the procedure:
The test strain V. harveyi BB170 was grown overnight in Luria Marine (LM)-medium ([25]). The culture was 1:500 diluted in AB-medium (0.3 M NaCl, 10 mM potassium phosphate, 1 mM L-arginine, […], 1% glycerol) the next day, and then challenged with various chemical compounds. After 5 h of shaking at 200 rpm at 30°C, the bioluminescence of BB170 was quantified on a GENios Pro plate reader (Tecan, Männedorf, Switzerland).
Figure 3. Bioactivity of hit candidates against Vibrio harveyi. Effect on bacterial growth. V. harveyi (BB170) was grown in the presence of individual compounds (A–H) for 5 h and the bioluminescence (green circles) was quantified. After a total of 24 h, bacterial growth (+) was evaluated by measuring the optical density (OD600). The gray translucent background in (C) represents the narrow range within which the compound reduces bioluminescence without affecting growth.

A further data set has as its target MTAN. As to conditions: cited from earlier work; for Ki: read-out: Ki (reported, in vitro).

We go through 25 compounds from publication PMC8287944, “5-Fluorouracil blocks quorum-sensing of biofilm-embedded methicillin-resistant Staphylococcus aureus in mice” (Nucleic Acids Research, 2021).

Where two headings read alike, the source gives them in different places. Bridge positions count the residues as written; N and C are the ends. Square brackets hold non-standard residues; d marks the D form. Peptide text beside a SMILES is read from it. I, II: the chains in the order shown. * marks the point of attachment. Quinoxaline2carbonyl = O=C(c1cnc2ccccc2n1)*; NMeV = CN[CH](C(=O)O)C(C)C; NMeC = CN[CH](CS)C(=O)O

In turn, `CCCCC[C@H](CC(=O)NO)C(=O)N[C@H](C(=O)N1CCC[C@H]1CO)C(C)C` [Actinonin] came in with an IC50 in data set [1] (Homo sapiens, 24 h) of 1000 nM. Moreover, the “Viability of Ctrl (%)” value in the data set with HEK-293AI2 cells (human, 5 µM) is “–11.93%”.
In turn, `CNC1=NC(=O)[C@H]([C@@H](C)c2c[nH]c3ccccc23)O1` [CHEMBL283366] had an IC50 in data set [1] of 180 nM.
`CO/N=C(\C(=O)N[C@@H]1C(=O)N2C(C(=O)O)=C(CSc3nc(=O)c(=O)[nH]n3C)CS[C@H]12)c1csc(N)n1` [Ceftriaxone] displayed an IC50 in data set [1] (Homo sapiens, 24 h) of 3490 nM. Besides, the “Viability of Ctrl (%)” value in the data set with HEK-293AI2 cells (human, 5 µM) was “–4.78%”.
`Nc1nc(Cl)nc2c1ncn2[C@@H]1O[C@H](CO)[C@@H](O)[C@@H]1F` [Clofarabine]: in data set [1] (Homo sapiens, 24 h), it took 160 nM to reach half-maximal inhibition (IC50). In the data set with HEK-293AI2 cells (human, 5 µM), the “Viability of Ctrl (%)” value is 15.42%. The “TC50 (decrease of V. harveyi growth)” value with V. harveyi (BB170) was 4.4 × 10^−7.
`C[C@H]1O[C@@H](n2cc(F)c(=O)[nH]c2=O)[C@H](O)[C@@H]1O` [Doxifluridine] yielded an IC50 in data set [1] (Homo sapiens, 24 h) of 240 nM. In addition, in the data set on HEK-293AI2 cells (human, 5 µM), the “Viability of Ctrl (%)” value is “–0.0725%”.
Consider `CC[C@H]1OC(=O)[C@H](C)[C@@H](O[C@H]2C[C@@](C)(OC)[C@@H](O)[C@H](C)O2)[C@H](C)[C@@H](O[C@@H]2O[C@H](C)C[C@H](N(C)C)[C@H]2O)[C@](C)(O)C[C@@H](C)C(=O)[C@H](C)[C@@H](O)[C@]1(C)O.O=C(O)[C@H](O)[C@H](O)[C@@H](O)[C@H](O)[C@H](O)CO` [Erythrohycin Gluceptate], for which, in data set [1], half-maximal inhibition (IC50) was put at 1310 nM.
As for `CC[C@H]1OC(=O)[C@H](C)[C@@H](O[C@H]2C[C@@](C)(OC)[C@@H](O)[C@H](C)O2)[C@H](C)[C@@H](O[C@@H]2O[C@H](C)C[C@H](N(C)C)[C@H]2O)[C@](C)(O)C[C@@H](C)C(=O)[C@H](C)[C@@H](O)[C@H]1C` [Erythromycin B], the IC50 in data set [1] was 1420 nM. Besides, the “Viability of Ctrl (%)” value in the data set with HEK-293AI2 cells amounted to 4.99%.
With `O=c1[nH]c(=O)n([C@H]2C[C@H](O)[C@@H](CO)O2)cc1F` [Floxuridine], the IC50 in data set [1] (Homo sapiens, 24 h) worked out at 770 nM. Also, in the data set with HEK-293AI2 cells (human, 5 µM), the “Viability of Ctrl (%)” value is reported as “–22.28%”.
`Nc1ncnc2c([C@@H]3O[C@H](CO)[C@@H](O)[C@H]3O)[nH]nc12` [Formycin]: the half-maximal inhibitory concentration (IC50) is 2110 nM in data set [1] (Homo sapiens, 24 h) and 57000 nM in the data set with MTAN (competitive MTAN inhibition, read-out: Reported IC50 (in vitro)). Further, at MTAN (competitive MTAN inhibition), the Ki was 10000 nM.
With `C[C@@H]1C/C=C2\SC[C@@H](NC(=O)c3coc(n3)C[C@H](O)C[C@H](O)/C=C/C=C/CNC2=O)C(=O)O1` [Griseoviridin], in data set [1], the IC50 was 4550 nM.
In data set [1] (Homo sapiens, 24 h), `CC(=O)NC[C@H]1CN(c2ccc(N3CCOCC3)c(F)c2)C(=O)O1` [Linezolid] gave an IC50 of 4160 nM. Also, the “Viability of Ctrl (%)” value with HEK-293AI2 cells (human, 5 µM) is 0.38%.
The compound `CSC[C@H]1CN(Cc2c[nH]c3c(N)ncnc23)C[C@@H]1O` [MT-DADMe-ImmA] yielded an IC50 in data set [1] of 170 nM. Further, the Ki on MTAN (MTAN inhibition) was 0.002 nM.
Compound `C/C=C\C=C\[C@@H]1O[C@](O)([C@H](CC)C(=O)NC/C=C/C=C(\C)[C@@H](OC)[C@H](C)[C@@H]2O[C@H](/C=C/C=C/C=C(\C)C(=O)c3c(O)cc[nH]c3=O)[C@H](O)[C@@H]2O)[C@H](O)[C@H](O)C1(C)C` [Mocimycin] gave an IC50 in data set [1] of 1370 nM.
Compound `COc1cc(C)c(Cc2cnc(N)nc2N)cc1OC` [Ormetoprim] came in with a half-inhibitory concentration (IC50) in data set [1] (Homo sapiens, 24 h) of 3660 nM.
Still for that read-out and setting: the result for `NC(=O)c1ncn([C@@H]2O[C@H](CO)[C@@H](O)[C@H]2O)n1` [Ribavirin] reads 190 nM.
On to `CO[C@H]1/C=C/O[C@@]2(C)Oc3c(C)c(O)c4c(c3C2=O)C2=NC3(CCN(CC(C)C)CC3)NC2=C(NC(=O)/C(C)=C\C=C\[C@H](C)[C@H](O)[C@@H](C)[C@@H](O)[C@@H](C)[C@H](OC(C)=O)[C@@H]1C)C4=O` [Rifabutin], for which 2190 nM corresponded to half-maximal inhibition in data set [1] (Homo sapiens, 24 h) (IC50). The “Viability of Ctrl (%)” value with HEK-293AI2 cells (human, 5 µM) is “–5.07%”.
As to `CO[C@H]1/C=C/O[C@@]2(C)Oc3c(C)c(O)c4c(O)c(c(/C=N/N5CCN(C6CCCC6)CC5)c(O)c4c3C2=O)NC(=O)/C(C)=C\C=C\[C@H](C)[C@H](O)[C@@H](C)[C@@H](O)[C@@H](C)[C@H](OC(C)=O)[C@@H]1C` [Rifapentine], the IC50 in data set [1] (Homo sapiens, 24 h) is 2530 nM. The “Viability of Ctrl (%)” value with HEK-293AI2 cells (human, 5 µM) is “–0.98%”.
`O=CN(O)C[C@@H](CC1CCCC1)C(=O)N1C[C@H](F)C[C@H]1C(=O)Nc1cnccn1` [SCHEMBL12230405] came in with an IC50 in data set [1] of 150 nM.
As to `O=CN(O)C[C@@H](CC1CCC1)C(=O)N1C[C@H](F)C[C@H]1C(=O)Nc1cccnn1` [SCHEMBL12230407], in data set [1], inhibition was half-maximal at 630 nM (IC50).
As for `O=CN(O)C[C@@H](CC1CCCC1)C(=O)N1C[C@H](F)C[C@H]1C(=O)Nc1cccnn1` [SCHEMBL12230409], half-maximal inhibition in data set [1] (IC50) required 640 nM.
In data set [1], `CCCC[C@H](CN(O)C=O)C(=O)N1CCC[C@H]1C(=O)Nc1cc(CC)ccn1` [SCHEMBL14510040] gave an IC50 of 1090 nM.
As for `CC1NC(=O)C(NC(=O)c2cnc3ccccc3n2)COC(=O)C(C(C)C)N(C)C(=O)C2CSSCC(C(=O)N(C)C(C(C)C)C(=O)OCC(NC(=O)c3cnc4ccccc4n3)C(=O)NC(C)C(=O)N2C)N(C)C1=O` (centres unmarked) [Triostin A] (I: Quinoxaline2carbonyl-SA[NMeC][NMeV] / II: Quinoxaline2carbonyl-SA[NMeC][NMeV]; ester I:1-II:C, I:C-II:1; disulfide I:3-II:3; configuration not given here), the IC50 in data set [1] amounted to 2140 nM.
As to `CO[C@@H]1[C@@H](OC(N)=O)[C@@H](O)[C@H](Oc2ccc3c(O)c(NC(=O)c4ccc(O)c(CC=C(C)C)c4)c(=O)oc3c2C)OC1(C)C` [novobiocin], the “Bioluminescence of V. harveyi (MM32)” value in data set [1] (assay validation, active control novobiocin 10 μM) is “completely shut down the bioluminescence”.
Erythromycin: the IC50 in data set [1] turned out to be 1930 nM.
Compound Levomycin displayed an IC50 in data set [1] of 370 nM.
